Converted amounts (≈) assume the structure as drawn. “And” between values parts separate entries of the source, which are not always exact repeats. Identical values can stand only once. Like-named read-outs stand apart in the source and are kept apart here.
What was measured:
MCF-7 cells = assay: MTT cell viability assay, MCF-7; assay type: cell-based, Human
Protocol: (§1) MCF-7 cells (Human breast adenocarcinoma), HepG2 (human hepatocellular carcinoma), A549 (human lung adenocarcinoma), Caco-2 (colon carcinoma), PANC-1 (human pancreatic cancer), and Vero cells (derived from normal kidney cells) were supplied by (Holding Company for Biological Products and Vaccines VACSERA; Giza, Egypt). The cells were cultured in PRMI 1640 medium (Lonza, Switzerland) supplemented with 10% fetal bovine serum (Gibco), 1% penicillin and 1% streptomycin (Sigma Aldrich, Saint Louis, MO, USA) at 37 °C under an atmosphere of 5% CO2 and 95% air.
(§2) The effect of parent compounds and their derivatives were assessed by (3-(4,5-dimethylthiazol-2-yl)-2,5diphenyl-tetrazolium bromide) MTT assay. […] After a merged sheet of cells developed, the growth media was decanted from the 96-well microtiter and refilled with different concentrations of compounds (µg/mL), and the plate was incubated at 37 °C for 48 h to minimize exposure to the dissolving agent (Supporting Information).
(§3) MTT solution (BIO BASIC CANADA INC) was prepared [5 mg/mL in phosphate buffered saline (PBS)], added to each well and incubated for 4 h, then after removing the media, 200 μL of DMSO was added to each well to solubilize the formazan crystals and the optical density of the formazan product was measured at 560 nm using microplate reader (mindray, MR-96A). The results were calculated as the mean of the three independent experiments. […]
(§4) Determination of sample cytotoxicity on cells (MTT protocol) […]
(§5) well) and incubated at 37°C for 24 hours to develop a complete monolayer sheet.
(§6) 2- Growth medium was decanted from 96 well micro titer plates after confluent sheet of cells were formed, cell monolayer was washed twice with wash media.
(§7) 3- two-fold dilutions of tested sample was made in RPMI medium with 2% serum […]
(§8) 4- 0.1 ml of each dilution was tested in different wells leaving 3 wells as control, receiving only maintenance medium.
(§9) 5- Plate was incubated at 37°C and examined. Cells were checked for any physical signs of toxicity, e.g. partial or complete loss of the monolayer, rounding, shrinkage, […]
(§10) 6- MTT solution was prepared (5mg/ml in PBS) (BIO BASIC CANADA INC).
(§11) 8- 20ul MTT solution were added to each well. Place on a shaking table, 150rpm for 5 minutes, to thoroughly mix the MTT into the media.
(§12) 10) Dump off the media. (dry plate on paper towels to remove residue if necessary. […] 9 ش - ايلعلا هبضهلا - مطقملا / ىسيئرلا لمعملا […]

Caco-2 cells = assay: Cell-cycle analysis by flow cytometry; assay type: cell-based; settings: Caco-2 cells; for %G0–G1 / %G2/M / %S: cell-cycle distribution after treatment; for %Pre-G1: Pre-G1 = apoptotic population
Protocol: The potential candidates with anti-tumor effect on the Caco-2 cell line along with a high SI were chosen for cell-cycle analysis. The cell-cycle distribution and cell death were analyzed using Annexin V-FITC/PI staining and flow cytometry (Table 4, Figure 4).
In order to determine the percentage of viable, apoptotic and necrotic cells after treatment with our compounds, double-staining with fluorescein isothiocyanate (FITC) and PI was performed. Annexin V-FITC Apoptosis Detection Kit (BioVision, CA, USA) was used. Briefly, cultured Caco-2 were treated with the tested compounds or DMSO for 24h. Cells were then collected by centrifugation at 2000 rpm for 5 min, and the pellet was washed with PBS then centrifuged again at 2000 rpm for 5 min then resuspended in 500μL of the kit’s binding buffer before adding the Annexin V-FITC and PI. The cells were then incubated at room temperature in the dark for 5 min. […]
Assay : Cell Cycle Analysis
Kit used : ab139418_Propidium Iodide Flow Cytometry Kit/BD
Assay samples :Cell culture
Cpd. No. Cpd. No. Cpd. No. Cpd. No.

Vero normal cell line = assay: MTT cell viability assay on normal Vero cells (selectivity); assay type: cell-based; settings: for IC50: Chlorocebus sabaeus, MTT report T-4-019-5, Conc. ug/ml
Protocol: (§13) MCF-7 cells (Human breast adenocarcinoma), HepG2 (human hepatocellular carcinoma), A549 (human lung adenocarcinoma), Caco-2 (colon carcinoma), PANC-1 (human pancreatic cancer), and Vero cells (derived from normal kidney cells) were supplied by (Holding Company for Biological Products and Vaccines VACSERA; Giza, Egypt).
as §2, §3, §4, §5, §6, §7, §8, §9, §10, §11
(§14) 10) Dump off the media. (dry plate on paper towels to remove residue if necessary. […]

[1] = as above; assay type: cell-based; settings: African green monkey, Vero cells (normal kidney cells)
Protocol: as §13, §2, §3, §4, §5, §6, §7, §8, §9, §10, §11, §14

A549 cells = assay: MTT cell viability assay, A549; assay type: cell-based, human; settings: for IC50 / viability at 15.625 µg/mL / viability at 31.25 µg/mL / viability at 62.5 µg/mL / viability at 125 µg/mL / viability at 250 µg/mL / viability at 500 µg/mL: Homo sapiens
Protocol: as §1, §2, §3, §4, §5, §6, §7, §8, §9, §10, §11, §12

PANC-1 cells = assay: MTT cell viability assay, PANC-1; assay type: cell-based, human; settings: for IC50 / viability at 15.625 µg/mL / viability at 31.25 µg/mL / viability at 62.5 µg/mL / viability at 125 µg/mL / viability at 250 µg/mL / viability at 500 µg/mL: Homo sapiens, PANC-1
Protocol: as §1, §2, §3, §4, §5, §6, §7, §8, §9, §10, §11, §12

[2] = Homo sapiens, MCF7, MTT, 48 h, average of triplicates, read-out: IC50 (μM) ± SD MCF-7
[3] = A549, MTT, 48 h, average of triplicates, read-out: IC50 (μM) ± SD A549
[4] = A549, MTT report T-4-019-5, Conc. ug/ml, read-out: IC50
[5] = Panc1, MTT report T-4-019-5, Conc. ug/ml, read-out: IC50

## O=C(O)/C=C/c1ccc(O)c(O)c1 [Compound 1, Caffeic acid]
MCF-7 cells; [2]
  IC50: 970 µM
Caco-2 cells
  %G0–G1: 46.29 ± 3.1%
  %G2/M: 20.49 ± 1.92%
  %S: 33.22 ± 1.99%
  %Pre-G1: 11.31 ± 0.81%
Caco-2 cells; listed as s1
  %G0–G1: 46.29%
  %G2/M: 20.49%
  %S: 33.22%
Caco-2 cells; listed as caffeic acid
  %Pre-G1: 11.31%
Vero normal cell line; 15.625 ug/ml
  Toxicity %: 0.8516%
Vero normal cell line; 31.25 ug/ml
  Toxicity %: 0.9732%
Vero normal cell line; 62.5 ug/ml
  Toxicity %: 0.7299%
Vero normal cell line; 125 ug/ml
  Toxicity %: 36.37%
Vero normal cell line; 250 ug/ml
  Toxicity %: 77.13%
Vero normal cell line; 500 ug/ml
  Toxicity %: 81.87%
Vero normal cell line
  IC50: 176 µg/mL (≈ 977 µM)
[1]
  viability at 48 h, 15.625 ug/ml: 99.1%
  viability at 48 h, 31.25 ug/ml: 99%
  viability at 48 h, 62.5 ug/ml: 99.3%
  viability at 48 h, 125 ug/ml: 63.6%
  viability at 48 h, 250 ug/ml: 22.9%
  viability at 48 h, 500 ug/ml: 18.1%
A549 cells; A549, 15.625 ug/ml
  Toxicity %: 0.7435%
  viability at 15.625 µg/mL: 99.3%
A549 cells; A549, 31.25 ug/ml
  Toxicity %: 0.1239%
  viability at 31.25 µg/mL: 99.9%
A549 cells; A549, 62.5 ug/ml
  Toxicity %: 0.9913%
  viability at 62.5 µg/mL: 99%
A549 cells; A549, 125 ug/ml
  Toxicity %: 3.841%
  viability at 125 µg/mL: 96.2%
A549 cells; A549, 250 ug/ml
  Toxicity %: 52.91%
  viability at 250 µg/mL: 47.1%
A549 cells; A549, 500 ug/ml
  Toxicity %: 78.56%
  viability at 500 µg/mL: 21.4%
A549 cells; [3]
  IC50: 1630 µM
A549 cells; [4]
  IC50: 317 µg/mL
PANC-1 cells; MTT, 48 h, average of triplicates, read-out: IC50 (μM) ± SD PANC-1
  IC50: 1290 µM
PANC-1 cells; Panc1, 15.625 ug/ml
  viability at 15.625 µg/mL: 100%
  Toxicity %: 0%
PANC-1 cells; Panc1, 31.25 ug/ml
  viability at 31.25 µg/mL: 101%
  Toxicity %: 0%
PANC-1 cells; Panc1, 62.5 ug/ml
  viability at 62.5 µg/mL: 99.8%
  Toxicity %: 0.1812%
PANC-1 cells; Panc1, 125 ug/ml
  viability at 125 µg/mL: 91.8%
  Toxicity %: 8.243%
PANC-1 cells; Panc1, 250 ug/ml
  viability at 250 µg/mL: 48.3%
  Toxicity %: 51.72%
PANC-1 cells; Panc1, 500 ug/ml
  viability at 500 µg/mL: 29.7%
  Toxicity %: 70.29%
PANC-1 cells; [5]
  IC50: 251 µg/mL

## COc1cc(/C=C/C(=O)O)ccc1O [Compound 2, Ferulic acid]
MCF-7 cells; [2]
  IC50: 1120 µM
MCF-7 cells; Homo sapiens, Mcf7, 15.625 ug/ml
  viability at 15.625 µg/mL: 98.7%
MCF-7 cells; Homo sapiens, Mcf7, 31.25 ug/ml
  viability at 31.25 µg/mL: 99.4%
MCF-7 cells; Homo sapiens, Mcf7, 62.5 ug/ml
  viability at 62.5 µg/mL: 99.2%
MCF-7 cells; Homo sapiens, Mcf7, 125 ug/ml
  viability at 125 µg/mL: 84.9%
MCF-7 cells; Homo sapiens, Mcf7, 250 ug/ml
  viability at 250 µg/mL: 29.4%
MCF-7 cells; Homo sapiens, Mcf7, 500 ug/ml
  viability at 500 µg/mL: 11.7%
MCF-7 cells; Homo sapiens, Mcf7, MTT report T-4-019-5, Conc. ug/ml, read-out: IC50
  IC50: 203 µg/mL
MCF-7 cells; Mcf7, 15.625 ug/ml
  Toxicity %: 1.286%
MCF-7 cells; Mcf7, 31.25 ug/ml
  Toxicity %: 0.6431%
MCF-7 cells; Mcf7, 62.5 ug/ml
  Toxicity %: 0.7503%
MCF-7 cells; Mcf7, 125 ug/ml
  Toxicity %: 15.11%
MCF-7 cells; Mcf7, 250 ug/ml
  Toxicity %: 70.63%
MCF-7 cells; Mcf7, 500 ug/ml
  Toxicity %: 88.32%
Caco-2 cells
  %Pre-G1: 13.22% and 13.22 ± 0.63%
Vero normal cell line; 15.625 ug/ml
  Toxicity %: 0%
Vero normal cell line; 31.25 ug/ml
  Toxicity %: 0.365%
Vero normal cell line; 62.5 ug/ml
  Toxicity %: 4.501%
Vero normal cell line; 125 ug/ml
  Toxicity %: 29.81%
Vero normal cell line; 250 ug/ml
  Toxicity %: 66.79%
Vero normal cell line; 500 ug/ml
  Toxicity %: 82.48%
Vero normal cell line
  IC50: 196 µg/mL (≈ 1010 µM)
[1]
  viability at 48 h, 15.625 ug/ml: 100%
  viability at 48 h, 31.25 ug/ml: 99.6%
  viability at 48 h, 62.5 ug/ml: 95.5%
  viability at 48 h, 125 ug/ml: 70.2%
  viability at 48 h, 250 ug/ml: 33.2%
  viability at 48 h, 500 ug/ml: 17.5%
A549 cells; A549, 15.625 ug/ml
  Toxicity %: 0.8674%
  viability at 15.625 µg/mL: 99.1%
A549 cells; A549, 31.25 ug/ml
  Toxicity %: 1.115%
  viability at 31.25 µg/mL: 98.9%
A549 cells; A549, 62.5 ug/ml
  Toxicity %: 0.7435%
  viability at 62.5 µg/mL: 99.3%
A549 cells; A549, 125 ug/ml
  Toxicity %: 4.089%
  viability at 125 µg/mL: 95.9%
A549 cells; A549, 250 ug/ml
  Toxicity %: 59.11%
  viability at 250 µg/mL: 40.9%
A549 cells; A549, 500 ug/ml
  Toxicity %: 75.96%
  viability at 500 µg/mL: 24%
A549 cells; [3]
  IC50: 1740 µM
A549 cells; [4]
  IC50: 314 µg/mL
PANC-1 cells; Panc1, 15.625 ug/ml
  viability at 15.625 µg/mL: 100%
  Toxicity %: 0%
PANC-1 cells; Panc1, 31.25 ug/ml
  viability at 31.25 µg/mL: 99.7%
  Toxicity %: 0.2717%
PANC-1 cells; Panc1, 62.5 ug/ml
  viability at 62.5 µg/mL: 100%
  Toxicity %: 0%
PANC-1 cells; Panc1, 125 ug/ml
  viability at 125 µg/mL: 86.5%
  Toxicity %: 13.5%
PANC-1 cells; Panc1, 250 ug/ml
  viability at 250 µg/mL: 24.9%
  Toxicity %: 75.09%
PANC-1 cells; Panc1, 500 ug/ml
  viability at 500 µg/mL: 28.5%
  Toxicity %: 71.47%
PANC-1 cells; [5]
  IC50: 195 µg/mL

— paper PMC9571594, “Development of Semisynthetic Apoptosis-Inducing Agents Based on Natural Phenolic Acids Scaffold: Design, Synthesis and In-Vitro Biological Evaluation” (Molecules, 2022)
